Source: paper PMC4412093, “Identification of a Novel Series of Potent TrkA Receptor Tyrosine Kinase Inhibitors” (International Journal of Medicinal Chemistry, 2012)
One block for each compound: values may come before it.

Tests used:
TrkA [1] = details: read-out: TrkA IC50 (reported); cited from earlier work
TrkA [2] = system: TrkA; set-up: method as in PMID 18646745, PMID 19509272; details: read-out: TrkA EC50 (reported); cited from earlier work
VEGFR2 = VEGFR2 (Homo sapiens, UniProt P35968); assay: VEGFR2 kinase enzyme inhibition; assay type: biochemical; details: average of ≥3 experiments
From the text: (§1) Table 1 2-Oxo-3-phenylimidazolidine-1-carboxamide kinase inhibitors based on different scaffolds.

TrkA human enzyme = TrkA human enzyme (Homo sapiens, UniProt P04629); assay: TrkA kinase enzyme inhibition; assay type: biochemical; details: for inhibition at 0.1 µM / inhibition at 0.03 µM: average of ≥3 experiments; for inhibition at 0.1 µM: read-out: TrkA % inh. at 0.1 μM; for inhibition at 0.03 µM: 30 nM, read-out: TrkA % inh. at 30 nM; for IC50: average of ≥2 experiments
c-Met [3] = biological target: T1, c-Met (Homo sapiens, UniProt P08581); assay: c-Met kinase enzyme inhibition; assay type: biochemical; details: average of ≥3 experiments
From the text: as §1

ALK = biological target: T2, ALK (Homo sapiens, UniProt Q9UM73); assay: Millipore Kinaseprofiler, ALK; assay type: biochemical; details: tested at 100 nM
T2 construct: purchased Millipore (Kinaseprofiler assay service)
Procedure: (§2) Compound 5 was profiled and tested at 100 nM against 24 other kinase enzymes using Millipore's Kinaseprofiler assay services.

Bmx = biological target: T3, Bmx (Homo sapiens, UniProt P51813); assay: Millipore Kinaseprofiler, Bmx; assay type: biochemical; details: tested at 100 nM
T3 construct: purchased Millipore (Kinaseprofiler assay service)
Procedure: as §2

Tie2 = biological target: T4, Tie2 (Homo sapiens, UniProt Q02763); assay: Millipore Kinaseprofiler, Tie2; assay type: biochemical; details: tested at 100 nM
T4 construct: purchased Millipore (Kinaseprofiler assay services)
Procedure: as §2

Ret = biological target: T5, Ret (Homo sapiens, UniProt P07949); assay: Millipore Kinaseprofiler, Ret; assay type: biochemical; details: tested at 100 nM
T5 construct: purchased Millipore (Kinaseprofiler assay service)
Procedure: as §2

PKBα = biological target: T6, PKBα (Homo sapiens, UniProt P31749); assay: Millipore Kinaseprofiler, PKBα; assay type: biochemical; details: tested at 100 nM
T6 construct: purchased Millipore (Kinaseprofiler assay service)
Procedure: as §2

FAK = biological target: T7, FAK (Homo sapiens, UniProt Q05397); assay: Millipore Kinaseprofiler, FAK; assay type: biochemical; details: tested at 100 nM
T7 construct: purchased Millipore (Kinaseprofiler assay service)
Procedure: as §2

PDK1 = biological target: T8, PDK1 (Homo sapiens, UniProt O15530); assay: Millipore Kinaseprofiler, PDK1; assay type: biochemical; details: tested at 100 nM
T8 construct: purchased Millipore (Kinaseprofiler assay service)
Procedure: as §2

MEK1 = biological target: T9, MEK1 (Homo sapiens, UniProt Q02750); assay: Millipore Kinaseprofiler, MEK1; assay type: biochemical; details: tested at 100 nM
T9 construct: purchased Millipore (Kinaseprofiler assay service)
Procedure: as §2

GSK3β = biological target: T10, GSK3β (Homo sapiens, UniProt P49841); assay: Millipore Kinaseprofiler, GSK3β; assay type: biochemical; details: tested at 100 nM
T10 construct: purchased Millipore (Kinaseprofiler assay service)
Procedure: as §2

JAK2 = biological target: T11, JAK2 (Homo sapiens, UniProt O60674); assay: Millipore Kinaseprofiler, JAK2; assay type: biochemical; details: tested at 100 nM
T11 construct: purchased Millipore (Kinaseprofiler assay service)
Procedure: as §2

c-Raf = biological target: T12, c-Raf (Homo sapiens, UniProt P04049); assay: Millipore Kinaseprofiler, c-Raf; assay type: biochemical; details: tested at 100 nM
T12 construct: purchased Millipore (Kinaseprofiler assay service)
Procedure: as §2

c-Met [4] = biological target: T1, c-Met; assay: Millipore Kinaseprofiler, c-Met; assay type: biochemical; set-up: purchased Millipore (Kinaseprofiler assay service); details: tested at 100 nM
Procedure: as §2

PI3-Kinaseβ = biological target: T13, PI3-Kinaseβ (Homo sapiens, UniProt P42338); assay: Millipore Kinaseprofiler, PI3-Kinaseβ; assay type: biochemical; details: tested at 100 nM
T13 construct: purchased Millipore (Kinaseprofiler assay service)
Procedure: as §2

Flt3 = biological target: T14, Flt3 (Homo sapiens, UniProt P36888); assay: Millipore Kinaseprofiler, Flt3; assay type: biochemical; details: tested at 100 nM
T14 construct: purchased Millipore (Kinaseprofiler assay service)
Procedure: as §2

cKit = biological target: T15, cKit (Homo sapiens, UniProt P10721); assay: Millipore Kinaseprofiler, cKit; assay type: biochemical; details: tested at 100 nM
T15 construct: purchased Millipore (Kinaseprofiler assay service)
Procedure: as §2

TrkB = TrkB (Homo sapiens, UniProt Q16620); assay: TrkB kinase inhibition; assay type: biochemical; details: tested at 10 nM
Procedure: as §2

Haspin = biological target: T16, Haspin (Homo sapiens, UniProt Q8TF76); assay: Millipore Kinaseprofiler, Haspin; assay type: biochemical; details: tested at 100 nM
T16 construct: purchased Millipore (Kinaseprofiler assay service)
Procedure: as §2

JAK3 = biological target: T17, JAK3 (Homo sapiens, UniProt P52333); assay: Millipore Kinaseprofiler, JAK3; assay type: biochemical; details: tested at 100 nM
T17 construct: purchased Millipore (Kinaseprofiler assay service)
Procedure: as §2

[5] = Rat pharmacokinetic profile; assay type: in vivo
From the text: Compound 5 was further evaluated for its pharmacokinetic properties in the rat (Table 5).

LIMK1 = biological target: T18, LIMK1 (Homo sapiens, UniProt P53667); assay: Millipore Kinaseprofiler, LIMK1; assay type: biochemical; details: tested at 100 nM
T18 construct: purchased Millipore (Kinaseprofiler assay service)
Procedure: as §2

CHK1 = biological target: T19, CHK1 (Homo sapiens, UniProt O14757); assay: Millipore Kinaseprofiler, CHK1; assay type: biochemical; details: tested at 100 nM
T19 construct: purchased Millipore (Kinaseprofiler assay service)
Procedure: as §2

Pim-1 = biological target: T20, Pim-1 (Homo sapiens, UniProt P11309); assay: Millipore Kinaseprofiler, Pim-1; assay type: biochemical; details: tested at 100 nM
T20 construct: purchased Millipore (Kinaseprofiler assay service)
Procedure: as §2

IKKβ = biological target: T21, IKKβ (Homo sapiens, UniProt O14920); assay: Millipore Kinaseprofiler, IKKβ; assay type: biochemical; details: tested at 100 nM
T21 construct: purchased Millipore (Kinaseprofiler assay service)
Procedure: as §2

EphB4 = biological target: T22, EphB4 (Homo sapiens, UniProt P54760); assay: Millipore Kinaseprofiler, EphB4; assay type: biochemical; details: tested at 100 nM
T22 construct: purchased Millipore (Kinaseprofiler assay service)
Procedure: as §2

Ron = biological target: T23, Ron (Homo sapiens, UniProt Q04912); assay: Millipore Kinaseprofiler, Ron; assay type: biochemical; details: tested at 100 nM
T23 construct: purchased Millipore (Kinaseprofiler assay service)
Procedure: as §2

[6] = p.o. dose 5.25 mg/kg, dose-normalised

TrkA human enzyme, sequence (P04629 33-796): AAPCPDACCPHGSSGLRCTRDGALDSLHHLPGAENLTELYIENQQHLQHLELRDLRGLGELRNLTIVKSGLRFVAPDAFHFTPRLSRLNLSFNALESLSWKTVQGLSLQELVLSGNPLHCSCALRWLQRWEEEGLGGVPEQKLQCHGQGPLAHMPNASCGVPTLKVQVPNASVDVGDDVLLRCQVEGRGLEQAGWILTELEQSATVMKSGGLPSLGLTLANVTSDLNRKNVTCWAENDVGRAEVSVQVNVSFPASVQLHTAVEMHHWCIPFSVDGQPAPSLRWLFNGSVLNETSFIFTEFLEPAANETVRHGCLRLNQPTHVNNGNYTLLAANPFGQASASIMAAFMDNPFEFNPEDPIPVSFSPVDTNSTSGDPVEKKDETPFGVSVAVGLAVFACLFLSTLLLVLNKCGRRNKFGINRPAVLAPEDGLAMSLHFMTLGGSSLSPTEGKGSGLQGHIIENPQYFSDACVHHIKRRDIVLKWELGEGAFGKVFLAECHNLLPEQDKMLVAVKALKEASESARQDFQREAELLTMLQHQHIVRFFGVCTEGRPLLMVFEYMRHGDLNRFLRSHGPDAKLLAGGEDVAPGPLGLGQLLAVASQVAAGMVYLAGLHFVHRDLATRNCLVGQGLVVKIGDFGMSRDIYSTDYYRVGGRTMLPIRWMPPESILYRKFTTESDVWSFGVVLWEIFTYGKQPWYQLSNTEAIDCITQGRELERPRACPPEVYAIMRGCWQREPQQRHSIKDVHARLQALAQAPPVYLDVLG
T1 sequence (P08581 25-1390): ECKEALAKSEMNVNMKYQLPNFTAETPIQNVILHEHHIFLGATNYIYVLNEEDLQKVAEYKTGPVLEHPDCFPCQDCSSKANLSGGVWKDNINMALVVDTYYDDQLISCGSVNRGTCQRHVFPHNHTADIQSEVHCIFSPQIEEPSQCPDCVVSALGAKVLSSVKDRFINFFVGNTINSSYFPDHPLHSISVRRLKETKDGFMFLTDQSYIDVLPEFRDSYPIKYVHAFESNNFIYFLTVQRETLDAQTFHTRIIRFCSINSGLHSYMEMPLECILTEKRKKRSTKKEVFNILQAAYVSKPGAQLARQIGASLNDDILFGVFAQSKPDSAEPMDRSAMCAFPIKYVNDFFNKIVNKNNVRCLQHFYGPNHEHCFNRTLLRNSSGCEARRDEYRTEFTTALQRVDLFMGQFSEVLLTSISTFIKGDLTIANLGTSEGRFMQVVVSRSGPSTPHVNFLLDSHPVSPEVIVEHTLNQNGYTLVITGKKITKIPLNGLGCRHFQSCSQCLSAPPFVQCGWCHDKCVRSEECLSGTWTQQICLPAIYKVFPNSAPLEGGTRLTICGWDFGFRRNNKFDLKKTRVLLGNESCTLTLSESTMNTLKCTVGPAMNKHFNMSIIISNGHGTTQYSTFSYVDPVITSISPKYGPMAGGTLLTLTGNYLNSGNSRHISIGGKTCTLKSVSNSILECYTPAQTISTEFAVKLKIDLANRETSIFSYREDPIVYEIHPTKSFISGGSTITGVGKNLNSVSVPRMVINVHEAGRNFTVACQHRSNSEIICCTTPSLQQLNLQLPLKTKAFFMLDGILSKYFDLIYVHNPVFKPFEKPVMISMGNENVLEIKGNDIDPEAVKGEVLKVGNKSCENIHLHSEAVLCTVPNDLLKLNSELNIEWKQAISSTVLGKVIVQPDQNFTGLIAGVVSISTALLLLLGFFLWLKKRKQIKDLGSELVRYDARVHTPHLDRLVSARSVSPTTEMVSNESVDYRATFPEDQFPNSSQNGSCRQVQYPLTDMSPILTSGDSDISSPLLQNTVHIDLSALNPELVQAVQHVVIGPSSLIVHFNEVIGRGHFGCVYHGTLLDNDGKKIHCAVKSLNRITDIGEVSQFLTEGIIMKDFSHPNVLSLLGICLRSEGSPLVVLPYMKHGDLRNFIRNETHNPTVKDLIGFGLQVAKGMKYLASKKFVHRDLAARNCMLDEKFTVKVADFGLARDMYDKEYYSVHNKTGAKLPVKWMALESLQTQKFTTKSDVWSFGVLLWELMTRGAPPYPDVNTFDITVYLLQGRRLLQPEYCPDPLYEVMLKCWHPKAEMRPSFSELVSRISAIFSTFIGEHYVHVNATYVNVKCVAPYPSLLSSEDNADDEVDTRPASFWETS
VEGFR2, sequence (P35968 20-1356, species assumed): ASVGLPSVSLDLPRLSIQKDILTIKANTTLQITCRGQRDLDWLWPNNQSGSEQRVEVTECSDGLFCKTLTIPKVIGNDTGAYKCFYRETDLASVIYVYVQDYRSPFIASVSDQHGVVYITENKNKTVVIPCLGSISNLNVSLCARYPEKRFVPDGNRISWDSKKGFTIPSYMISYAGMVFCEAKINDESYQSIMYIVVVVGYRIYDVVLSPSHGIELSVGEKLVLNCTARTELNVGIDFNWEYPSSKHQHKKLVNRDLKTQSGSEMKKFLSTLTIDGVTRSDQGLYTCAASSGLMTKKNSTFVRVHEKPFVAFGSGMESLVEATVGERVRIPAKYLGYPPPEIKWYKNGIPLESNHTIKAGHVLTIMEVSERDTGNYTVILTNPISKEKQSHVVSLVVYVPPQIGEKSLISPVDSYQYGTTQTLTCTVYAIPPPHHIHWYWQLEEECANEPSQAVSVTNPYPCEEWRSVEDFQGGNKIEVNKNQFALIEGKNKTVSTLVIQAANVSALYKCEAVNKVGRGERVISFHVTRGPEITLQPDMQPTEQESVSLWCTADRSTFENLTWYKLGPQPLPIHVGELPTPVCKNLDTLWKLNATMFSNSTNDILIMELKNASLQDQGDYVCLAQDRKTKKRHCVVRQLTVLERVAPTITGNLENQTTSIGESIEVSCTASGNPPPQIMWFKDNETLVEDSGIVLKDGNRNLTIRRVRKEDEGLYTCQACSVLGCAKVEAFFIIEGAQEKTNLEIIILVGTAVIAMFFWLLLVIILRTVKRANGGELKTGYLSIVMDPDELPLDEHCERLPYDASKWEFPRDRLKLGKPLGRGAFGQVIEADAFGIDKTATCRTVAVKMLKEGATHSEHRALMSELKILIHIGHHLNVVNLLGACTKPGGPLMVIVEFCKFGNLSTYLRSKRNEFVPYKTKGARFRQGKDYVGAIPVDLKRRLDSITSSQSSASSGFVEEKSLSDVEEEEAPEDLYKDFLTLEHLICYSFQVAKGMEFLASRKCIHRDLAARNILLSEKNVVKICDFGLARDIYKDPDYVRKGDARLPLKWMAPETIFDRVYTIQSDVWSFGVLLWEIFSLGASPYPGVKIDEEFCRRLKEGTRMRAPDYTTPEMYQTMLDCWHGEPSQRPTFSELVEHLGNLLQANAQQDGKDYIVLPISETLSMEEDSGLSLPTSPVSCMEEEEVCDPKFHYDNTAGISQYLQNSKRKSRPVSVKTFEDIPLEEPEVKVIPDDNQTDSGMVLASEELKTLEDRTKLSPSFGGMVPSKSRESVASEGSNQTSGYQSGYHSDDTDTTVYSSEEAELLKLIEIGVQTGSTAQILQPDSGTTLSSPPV
T19 sequence (O14757 whole entry): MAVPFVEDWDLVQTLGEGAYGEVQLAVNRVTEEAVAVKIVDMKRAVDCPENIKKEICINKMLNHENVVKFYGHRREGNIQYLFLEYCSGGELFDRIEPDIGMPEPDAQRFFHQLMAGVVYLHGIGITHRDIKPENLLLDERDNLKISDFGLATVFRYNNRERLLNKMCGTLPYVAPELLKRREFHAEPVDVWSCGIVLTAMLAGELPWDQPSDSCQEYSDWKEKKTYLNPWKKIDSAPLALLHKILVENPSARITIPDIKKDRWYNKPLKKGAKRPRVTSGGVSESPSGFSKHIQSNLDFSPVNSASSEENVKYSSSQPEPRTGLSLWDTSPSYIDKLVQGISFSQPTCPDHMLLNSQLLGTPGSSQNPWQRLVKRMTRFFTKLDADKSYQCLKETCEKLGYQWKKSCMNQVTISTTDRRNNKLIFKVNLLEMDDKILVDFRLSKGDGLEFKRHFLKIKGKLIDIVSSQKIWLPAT
T8 sequence (O15530 whole entry): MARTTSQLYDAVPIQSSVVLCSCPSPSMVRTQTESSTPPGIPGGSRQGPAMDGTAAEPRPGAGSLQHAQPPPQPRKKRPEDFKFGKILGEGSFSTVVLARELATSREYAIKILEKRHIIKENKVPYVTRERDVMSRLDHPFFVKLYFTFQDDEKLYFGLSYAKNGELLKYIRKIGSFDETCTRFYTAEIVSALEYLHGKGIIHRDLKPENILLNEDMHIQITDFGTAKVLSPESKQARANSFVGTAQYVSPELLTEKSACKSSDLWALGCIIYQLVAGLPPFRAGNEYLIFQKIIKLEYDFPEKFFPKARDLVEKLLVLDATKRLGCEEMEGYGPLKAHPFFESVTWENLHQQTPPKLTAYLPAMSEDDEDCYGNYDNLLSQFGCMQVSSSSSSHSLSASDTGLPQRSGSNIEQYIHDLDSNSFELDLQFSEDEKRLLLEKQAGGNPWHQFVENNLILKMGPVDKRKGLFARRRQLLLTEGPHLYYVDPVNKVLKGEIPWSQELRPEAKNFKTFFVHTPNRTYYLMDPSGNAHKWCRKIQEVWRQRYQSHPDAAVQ
T20 sequence (P11309 whole entry): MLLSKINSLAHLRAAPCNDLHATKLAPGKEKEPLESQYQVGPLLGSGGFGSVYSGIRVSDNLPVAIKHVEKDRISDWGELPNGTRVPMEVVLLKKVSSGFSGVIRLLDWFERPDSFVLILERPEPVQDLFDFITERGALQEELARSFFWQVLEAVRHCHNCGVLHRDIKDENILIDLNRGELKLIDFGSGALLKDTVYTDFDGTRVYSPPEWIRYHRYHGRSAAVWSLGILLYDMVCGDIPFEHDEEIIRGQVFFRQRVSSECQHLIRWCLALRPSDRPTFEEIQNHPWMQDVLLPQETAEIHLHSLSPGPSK

SMILES: CC(C)Oc1cc(Nc2nc(N[C@@H](C)c3ccc(F)cc3)ncc2Cl)n[nH]1 [AZ-23]
- IC50 (TrkA [1]): < 0.003 µM
- EC50 (TrkA [2]): 0.001 µM

SMILES: NC(=O)Nc1snc(S[C@@H]2CCCCc3ccccc32)c1C(N)=O [Compound 5n]
- IC50 (TrkA [1]): < 0.001 µM

SMILES: CCNC(=O)OC(C)C1c2ccccc2-c2c3c(c4c([nH]c5ccccc54)c21)CNC3=O (stereo not shown) [Compound 12a]
- IC50 (TrkA [1]): 0.008 µM

SMILES: Cc1ccc(Sc2cnc(Nc3cccc(Br)n3)s2)cc1C(=O)N1CCN(C(=O)CN)CC1 [Compound 20h]
- IC50 (TrkA [1]): 0.0006 µM

- IC50 (VEGFR2): 0.01 µM
- inhibition at 0.1 µM (TrkA human enzyme): 82%
- IC50 (c-Met [3]): 0.02 µM
SMILES: CCn1cnc(-c2cc3nccc(Oc4ccc(NC(=O)N5CCN(c6ccccc6)C5=O)cc4F)c3s2)c1 [Cpd 1]

- IC50 (VEGFR2): 0.01 µM
- inhibition at 0.1 µM (TrkA human enzyme): 94%
- IC50 (c-Met [3]): 0.03 µM
SMILES: COc1cc2nccc(Oc3ccc(NC(=O)N4CCN(c5ccccc5)C4=O)cc3F)c2cc1OC [Cpd 2]

SMILES: O=C(Nc1cc(Oc2ccc(NC(=O)N3CCN(c4ccccc4)C3=O)cc2F)ncn1)N1CCCC1 [Cpd 3]
- IC50 (VEGFR2): 0.15 µM
- inhibition at 0.1 µM (TrkA human enzyme): 16%
- IC50 (c-Met [3]): 0.05 µM

- IC50 (VEGFR2): 0.23 µM
- inhibition at 0.1 µM (TrkA human enzyme): 49%
- IC50 (c-Met [3]): 0.03 µM
SMILES: O=C(Nc1cc(Oc2ccc(NC(=O)N3CCN(c4ccccc4)C3=O)cc2F)ccn1)N1CCCC1 [Cpd 4]

- inhibition at 0.1 µM (ALK): < 40%
- inhibition at 0.1 µM (Bmx): < 40%
- inhibition at 0.1 µM (Tie2): < 40%
- inhibition at 0.1 µM (Ret): < 40%
- inhibition at 0.1 µM (PKBα): < 40%
- inhibition at 0.1 µM (FAK): < 40%
- IC50 (VEGFR2): 2.5 µM
- inhibition at 0.1 µM (PDK1): < 40%
- inhibition at 0.1 µM (MEK1): < 40%
- inhibition at 0.1 µM (GSK3β): < 40%
- inhibition at 0.1 µM (JAK2): < 40%
- inhibition at 0.03 µM (TrkA human enzyme): 96%
- inhibition at 0.1 µM (TrkA human enzyme): 98%
- IC50 (TrkA human enzyme): 0.004 µM
- inhibition at 0.1 µM (c-Raf): < 40%
- inhibition at 0.1 µM (c-Met [4]): < 40%
- IC50 (c-Met [3]): 0.31 µM
- inhibition at 0.1 µM (PI3-Kinaseβ): < 40%
- inhibition at 0.1 µM (Flt3): 83%
- inhibition at 0.1 µM (cKit): < 40%
- inhibition at 0.01 µM (TrkB): 40%
- inhibition at 0.1 µM (Haspin): < 40%
- inhibition at 0.1 µM (JAK3): < 40%
- clearance ([5]; in vivo, iv, i.v. dose 2.58 mg/kg, read-out: Cl i.v. (converted)): 3.3 L/h/kg
- half-life ([5]; in vivo, iv, i.v. dose 2.58 mg/kg, read-out: T1/2, i.v. (converted)): 1.5 h
- Vd ([5]; in vivo, iv, i.v. dose 2.58 mg/kg, read-out: Vss i.v.): 3.7 L/kg
- bioavailability ([5]; in vivo, oral, i.v. 2.58 mg/kg, p.o. 5.25 mg/kg): 99%
- Tmax ([5]; in vivo, po, p.o. dose 5.25 mg/kg): 4 h
- N. AUC, p.o. [5, 6]: 0.83 μM.h/(mg/kg)
- N. C max, p.o. [5, 6]: 0.08 μM/(mg/kg)
- inhibition at 0.1 µM (LIMK1): < 40%
- inhibition at 0.1 µM (CHK1): < 40%
- inhibition at 0.1 µM (Pim-1): < 40%
- inhibition at 0.1 µM (IKKβ): < 40%
- inhibition at 0.1 µM (EphB4): < 40%
- inhibition at 0.1 µM (Ron): < 40%
SMILES: CC(=O)Nc1ccc(Oc2cccc(NC(=O)N3CCN(c4ccccc4)C3=O)c2)cn1 [Cpd 5]

- inhibition at 0.03 µM (TrkA human enzyme): 5%
SMILES: CC(=O)Nc1ccc(NC(=O)Nc2cccc(NC(=O)N3CCN(c4ccccc4)C3=O)c2)cn1 [Cpd 6]

- inhibition at 0.03 µM (TrkA human enzyme): 16%
SMILES: CC(=O)Nc1ccc(C#Cc2cccc(NC(=O)N3CCN(c4ccccc4)C3=O)c2)cn1 [Cpd 7]

- inhibition at 0.03 µM (TrkA human enzyme): 6%
SMILES: CC(=O)Nc1ccc(Oc2cc(NC(=O)N3CCN(c4ccccc4)C3=O)ccc2C)cn1 [Cpd 10]

- inhibition at 0.03 µM (TrkA human enzyme): 15%
SMILES: COc1ccc(NC(=O)N2CCN(c3ccccc3)C2=O)cc1Oc1ccc(NC(C)=O)nc1 [Cpd 11]

- inhibition at 0.03 µM (TrkA human enzyme): 0%
SMILES: CC(=O)Nc1ccc(Oc2ccc(Cl)c(NC(=O)N3CCN(c4ccccc4)C3=O)c2)cn1 [Cpd 12]

- IC50 (TrkA human enzyme): 0.02 µM
SMILES: Nc1ccc(Oc2cccc(NC(=O)N3CCN(c4ccccc4)C3=O)c2)cn1 [Cpd 13]

- IC50 (TrkA human enzyme): 0.003 µM
SMILES: CC(=O)Nc1ccc(Oc2cccc(NC(=O)N3CCN(c4ccc(F)cc4)C3=O)c2)cn1 [Cpd 14]

- IC50 (TrkA human enzyme): 0.005 µM
SMILES: CNC(=O)Nc1ccc(Oc2cccc(NC(=O)N3CCN(c4ccccc4)C3=O)c2)cn1 [Cpd 15]

- IC50 (TrkA human enzyme): 0.002 µM
SMILES: CNC(=O)Nc1ccc(Oc2cccc(NC(=O)N3CCN(c4ccc(F)cc4)C3=O)c2)cn1 [Cpd 16]

- IC50 (TrkA human enzyme): 0.004 µM
SMILES: O=C(NCCN1CCCC1)Nc1ccc(Oc2cccc(NC(=O)N3CCN(c4ccc(F)cc4)C3=O)c2)cn1 [Cpd 17]
